Like-named read-outs stand apart in the source and are kept apart here.
Tests used:
Type in all cases: in vivo
[1] = system: giant foxtail (Setaria faberii); assay: Test C pre/postemergence; settings: for pest or weed control at 125 g/ha / pest or weed control at 500 g/ha / pest or weed control at 62 g/ha / pest or weed control at 250 g/ha: Setaria faberi
From the text: (§1) Seeds or nutlets of plant species selected from bermudagrass (Cynodon dactylon), Surinam grass (Brachiaria decumbens), cocklebur (Xanthium strumarium), corn (Zea mays), crabgrass (Digitaria sanguinalis), woolly cupgrass (Eriochloa villosa), giant foxtail (Setaria faberii), goosegrass (Eleusine indica), johnsongrass (Sorghum halepense), kochia (Kochia scoparia), lambsquarters (Chenopodium album), morningglory (Ipomoea coccinea), eastern black nightshade (Solanum ptycanthum), yellow nutsedge (Cyperus esculentus), pigweed (Amaranthus retroflexus), common ragweed (Ambrosia elatior), soybean (Glycine max), common (oilseed) sunflower (Helianthus annuus), and velvetleaf (Abutilon theophrasti) were planted and treated preemergence with test chemicals formulated in a non-phytotoxic solvent mixture which included a surfactant.
(§2) At the same time, plants selected from these crop and weed species and also winter barley (Hordeum vulgare), blackgrass (Alopecurus myosuroides), canarygrass (Phalaris minor), chickweed (Stellaria media), downy brome (Bromus tectorum), green foxtail (Setaria viridis), Italian ryegrass (Lolium multiflorum), wheat (Triticum aestivum), wild oat (Avena fatua) and windgrass (Apera spica-venti) were treated with postemergence applications of some of the test chemicals formulated in the same manner. Plants ranged in height from 2 to 18 cm (1- to 4-leaf stage) for postemergence treatments. Plant species in the flooded paddy test consisted of rice (Oryza sativa), umbrella sedge (Cyperus difformis), duck salad (Heteranthera limosa) and barnyardgrass (Echinochloa crus-galli) grown to the 2-leaf stage for testing. Treated plants and controls were maintained in a greenhouse for 12 to 14 days, after which time all species were compared to controls and visually evaluated. Plant response ratings, summarized in Table C, are based on a scale of 0 to 100 where 0 is no effect and 100 is complete control. A dash (-) response means no test result.

[2] = system: goosegrass (Eleusine indica); assay: Test C pre/postemergence; settings: for pest or weed control at 62 g/ha / pest or weed control at 125 g/ha / pest or weed control at 250 g/ha / pest or weed control at 500 g/ha: Eleusine indica
From the text: as §1, §2

[3] = system: lambsquarters (Chenopodium album); assay: Test C pre/postemergence; settings: for pest or weed control at 62 g/ha / pest or weed control at 125 g/ha / pest or weed control at 250 g/ha / pest or weed control at 500 g/ha: Chenopodium album
From the text: as §1, §2

[4] = system: velvetleaf (Abutilon theophrasti); assay: Test C pre/postemergence; settings: for pest or weed control at 62 g/ha / pest or weed control at 125 g/ha / pest or weed control at 250 g/ha / pest or weed control at 500 g/ha: Abutilon theophrasti
From the text: as §1, §2

[5] = system: chickweed (Stellaria media); assay: Test C postemergence; settings: for Plant response rating, Chickweed: scale 0 to 100
Outline: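 Seeds sown and sprayed preemergence with test compound in non-phytotoxic solvent containing surfactant; postemergence sprays, same formulation, went onto plants 2 to 18 cm tall (1- to 4-leaf stage). Plants held in greenhouse 12 to 14 days, then visually rated against untreated controls on a 0–100 scale (0 no effect, 100 complete control).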

[6] = Postemergence, 62 g ai/ha, scale 0 to 100 (0 no effect, 100 complete control)
[7] = Postemergence, 125 g ai/ha, scale 0 to 100 (0 no effect, 100 complete control)
[8] = Postemergence, 250 g ai/ha, scale 0 to 100
[9] = Postemergence, 500 g ai/ha, scale 0 to 100
[10] = 62 g ai/ha, scale 0 to 100 (0 no effect, 100 complete control)
[11] = 125 g ai/ha, scale 0 to 100 (0 no effect, 100 complete control)

## CCOC(=O)c1nc(-c2ccc(Cl)cc2)nc(N)c1Br [Compound 37]
[1]; [6]
  Foxtail, Giant plant response rating: 0
[1]; [7]
  Foxtail, Giant plant response rating: 0
[1]; [8]
  Plant response rating, Foxtail, Giant: 40
[1]; [9]
  Plant response rating, Foxtail, Giant: 45
[2]; [6]
  Goosegrass plant response rating: 0
[2]; [7]
  Goosegrass plant response rating: 0
[2]; [8]
  Plant response rating, Goosegrass: 0
[2]; [9]
  Plant response rating, Goosegrass: 0
[3]; [6]
  Lambsquarters plant response rating: 0
[3]; [7]
  Lambsquarters plant response rating: 95
[3]; [8]
  Plant response rating, Lambsquarters: 95
[3]; [9]
  Plant response rating, Lambsquarters: 95
[4]; [6]
  Velvetleaf plant response rating: 0
[4]; [7]
  Velvetleaf plant response rating: 85
[4]; [8]
  Plant response rating, Velvetleaf: 90
[4]; [9]
  Plant response rating, Velvetleaf: 95
[5]; [10]
  Chickweed plant response rating: 0
[5]; [11]
  Chickweed plant response rating: 0
[5]; 250 g ai/ha
  Plant response rating, Chickweed: 0
[5]; 500 g ai/ha
  Plant response rating, Chickweed: 0

## CNc1nc(C2CC2)nc(C(=O)OC)c1Br [Compound 5]
[1]; post-emergence, Postemergence, 125 g ai/ha, scale 0 to 100 (0 no effect, 100 complete control), read-out: Foxtail, Giant plant response rating
  pest or weed control at 125 g/ha: 30%
[1]; post-emergence, Postemergence, 500 g ai/ha, scale 0 to 100, read-out: Plant response rating, Foxtail, Giant
  pest or weed control at 500 g/ha: 60%
[1]; post-emergence, Postemergence, 62 g ai/ha, scale 0 to 100 (0 no effect, 100 complete control), read-out: Foxtail, Giant plant response rating
  pest or weed control at 62 g/ha: 20%
[1]; post-emergence, Postemergence, 250 g ai/ha, scale 0 to 100, read-out: Plant response rating, Foxtail, Giant
  pest or weed control at 250 g/ha: 50%
[1]; pre-emergence, Preemergence, 62 g ai/ha, scale 0 to 100, 0 no effect, 100 complete control, read-out: Plant response rating, Foxtail, Giant
  pest or weed control at 62 g/ha: 0%
[1]; pre-emergence, Preemergence, 125 g ai/ha, scale 0 to 100, read-out: Plant response rating, Foxtail, Giant
  pest or weed control at 125 g/ha: 0%
[1]; pre-emergence, Preemergence, 250 g ai/ha, scale 0 to 100, read-out: Plant response rating, Foxtail, Giant
  pest or weed control at 250 g/ha: 10%
[1]; pre-emergence, Preemergence, 500 g ai/ha, scale 0 to 100, read-out: Plant response rating, Foxtail, Giant
  pest or weed control at 500 g/ha: 60%
[2]; post-emergence, Postemergence, 62 g ai/ha, scale 0 to 100 (0 no effect, 100 complete control), read-out: Goosegrass plant response rating
  pest or weed control at 62 g/ha: 0%
[2]; post-emergence, Postemergence, 125 g ai/ha, scale 0 to 100 (0 no effect, 100 complete control), read-out: Goosegrass plant response rating
  pest or weed control at 125 g/ha: 5%
[2]; post-emergence, Postemergence, 250 g ai/ha, scale 0 to 100, read-out: Plant response rating, Goosegrass
  pest or weed control at 250 g/ha: 40%
[2]; post-emergence, Postemergence, 500 g ai/ha, scale 0 to 100, read-out: Plant response rating, Goosegrass
  pest or weed control at 500 g/ha: 50%
[2]; pre-emergence, Preemergence, 62 g ai/ha, scale 0 to 100, 0 no effect, 100 complete control, read-out: Plant response rating, Goosegrass
  pest or weed control at 62 g/ha: 0%
[2]; pre-emergence, Preemergence, 125 g ai/ha, scale 0 to 100, read-out: Plant response rating, Goosegrass
  pest or weed control at 125 g/ha: 0%
[2]; pre-emergence, Preemergence, 250 g ai/ha, scale 0 to 100, read-out: Plant response rating, Goosegrass
  pest or weed control at 250 g/ha: 0%
[2]; pre-emergence, Preemergence, 500 g ai/ha, scale 0 to 100, read-out: Plant response rating, Goosegrass
  pest or weed control at 500 g/ha: 40%
[3]; post-emergence, Postemergence, 62 g ai/ha, scale 0 to 100 (0 no effect, 100 complete control), read-out: Lambsquarters plant response rating
  pest or weed control at 62 g/ha: 95%
[3]; post-emergence, Postemergence, 125 g ai/ha, scale 0 to 100 (0 no effect, 100 complete control), read-out: Lambsquarters plant response rating
  pest or weed control at 125 g/ha: 100%
[3]; post-emergence, Postemergence, 250 g ai/ha, scale 0 to 100, read-out: Plant response rating, Lambsquarters
  pest or weed control at 250 g/ha: 100%
[3]; post-emergence, Postemergence, 500 g ai/ha, scale 0 to 100, read-out: Plant response rating, Lambsquarters
  pest or weed control at 500 g/ha: 100%
[3]; pre-emergence, Preemergence, 62 g ai/ha, scale 0 to 100, 0 no effect, 100 complete control, read-out: Plant response rating, Lambsquarters
  pest or weed control at 62 g/ha: 95%
[3]; pre-emergence, Preemergence, 125 g ai/ha, scale 0 to 100, read-out: Plant response rating, Lambsquarters
  pest or weed control at 125 g/ha: 95%
[3]; pre-emergence, Preemergence, 250 g ai/ha, scale 0 to 100, read-out: Plant response rating, Lambsquarters
  pest or weed control at 250 g/ha: 100%
[3]; pre-emergence, Preemergence, 500 g ai/ha, scale 0 to 100, read-out: Plant response rating, Lambsquarters
  pest or weed control at 500 g/ha: 100%
[4]; post-emergence, Postemergence, 62 g ai/ha, scale 0 to 100 (0 no effect, 100 complete control), read-out: Velvetleaf plant response rating
  pest or weed control at 62 g/ha: 55%
[4]; post-emergence, Postemergence, 125 g ai/ha, scale 0 to 100 (0 no effect, 100 complete control), read-out: Velvetleaf plant response rating
  pest or weed control at 125 g/ha: 90%
[4]; post-emergence, Postemergence, 250 g ai/ha, scale 0 to 100, read-out: Plant response rating, Velvetleaf
  pest or weed control at 250 g/ha: 90%
[4]; post-emergence, Postemergence, 500 g ai/ha, scale 0 to 100, read-out: Plant response rating, Velvetleaf
  pest or weed control at 500 g/ha: 95%
[4]; pre-emergence, Preemergence, 62 g ai/ha, scale 0 to 100, 0 no effect, 100 complete control, read-out: Plant response rating, Velvetleaf
  pest or weed control at 62 g/ha: 85%
[4]; pre-emergence, Preemergence, 125 g ai/ha, scale 0 to 100, read-out: Plant response rating, Velvetleaf
  pest or weed control at 125 g/ha: 85%
[4]; pre-emergence, Preemergence, 250 g ai/ha, scale 0 to 100, read-out: Plant response rating, Velvetleaf
  pest or weed control at 250 g/ha: 90%
[4]; pre-emergence, Preemergence, 500 g ai/ha, scale 0 to 100, read-out: Plant response rating, Velvetleaf
  pest or weed control at 500 g/ha: 90%
[5]; Stellaria media, post-emergence, 62 g ai/ha, scale 0 to 100 (0 no effect, 100 complete control), read-out: Chickweed plant response rating
  pest or weed control at 62 g/ha: 0%
[5]; Stellaria media, post-emergence, 125 g ai/ha, scale 0 to 100, read-out: Plant response rating, Chickweed
  pest or weed control at 125 g/ha: 10%
[5]; Stellaria media, post-emergence, 250 g ai/ha, scale 0 to 100, read-out: Plant response rating, Chickweed
  pest or weed control at 250 g/ha: 20%

## CC(=O)NN=Cc1nc(C2CC2)nc(N)c1Br [Compound 51]
[1]; [6]
  Foxtail, Giant plant response rating: 0
[1]; [7]
  Foxtail, Giant plant response rating: 0
[1]; [8]
  Plant response rating, Foxtail, Giant: 0
[1]; [9]
  Plant response rating, Foxtail, Giant: 0
[2]; [6]
  Goosegrass plant response rating: 0
[2]; [7]
  Goosegrass plant response rating: 0
[2]; [8]
  Plant response rating, Goosegrass: 0
[2]; [9]
  Plant response rating, Goosegrass: 0
[3]; [6]
  Lambsquarters plant response rating: 60
[3]; [7]
  Lambsquarters plant response rating: 75
[3]; [8]
  Plant response rating, Lambsquarters: 85
[3]; [9]
  Plant response rating, Lambsquarters: 90
[4]; [6]
  Velvetleaf plant response rating: 0
[4]; [7]
  Velvetleaf plant response rating: 20
[4]; [8]
  Plant response rating, Velvetleaf: 60
[4]; [9]
  Plant response rating, Velvetleaf: 65
[5]; [10]
  Chickweed plant response rating: 0
[5]; [11]
  Chickweed plant response rating: 0
[5]; 250 g ai/ha
  Plant response rating, Chickweed: 0
[5]; 500 g ai/ha
  Plant response rating, Chickweed: 45
